Earlier results, collected in PMC13517605, “In Vitro Three-Dimensional Human Liver Model for Drug-Induced Liver and Bile Duct Injury Prediction” (Toxics, 2026).

Details: maximum plasma concentration in humans

[H]/N=C(/N)N[C@H]1[C@H](O)[C@@H](O)[C@H](O[C@@H]2O[C@@H](C)[C@](O)(C=O)[C@H]2O[C@@H]2O[C@@H](CO)[C@H](O)[C@@H](O)[C@@H]2NC)[C@@H](N/C(N)=N\[H])[C@@H]1O [Streptomycin, streptomycin]
Cmax: 52.3 µM
